In PubChem BioAssay AID1963958 (Molecular Pharmacology Branch, DTP, NCI, 2024):

Tested on: MDA-MB-231 multicell spheroids, viability
Experiment: Anticancer human tumor MDA-MB-231 cell line growth inhibition [PI3K];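 also: spheroids exposed to agents for seven days before reading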;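 as to viability, T/C: percent of vehicle control luminescence with DMSO treated spheroids as 100%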
Details: for IC50: curve of first compound; for viability, T/C: stronger effect = lower value
In short: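 Complex 3D spheroids (cancer cells + endothelial HUVEC + mesenchymal stem cells); drug pairs of targeted agent x inavolisib/alpelisib/duvelisib/copanlisib; half-log series from ~Cmax, max 10 microM if Cmax unknown; endpoint viability.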

[1] = second compound 0.00316 µM, first compound 0.0316 µM
[2] = second compound 0.00316 µM, first compound 0.1 µM
[3] = second compound 0.00316 µM, first compound 0.316 µM
[4] = second compound 0.00316 µM, first compound 1 µM
[5] = second compound 0.00316 µM, first compound 3.16 µM
[6] = second compound 0.00316 µM, first compound 10 µM
[7] = second compound 0.01 µM, first compound 0.0316 µM
[8] = second compound 0.01 µM, first compound 0.1 µM
[9] = second compound 0.01 µM, first compound 0.316 µM
[10] = second compound 0.01 µM, first compound 1 µM
[11] = second compound 0.01 µM, first compound 3.16 µM
[12] = second compound 0.01 µM, first compound 10 µM
[13] = second compound 0.0316 µM, first compound 0.0316 µM
[14] = second compound 0.0316 µM, first compound 0.1 µM
[15] = second compound 0.0316 µM, first compound 0.316 µM
[16] = second compound 0.0316 µM, first compound 1 µM
[17] = second compound 0.0316 µM, first compound 3.16 µM
[18] = second compound 0.0316 µM, first compound 10 µM
[19] = second compound 0.1 µM, first compound 0.0316 µM
[20] = second compound 0.1 µM, first compound 0.1 µM
[21] = second compound 0.1 µM, first compound 0.316 µM
[22] = second compound 0.1 µM, first compound 1 µM
[23] = second compound 0.1 µM, first compound 3.16 µM
[24] = second compound 0.1 µM, first compound 10 µM
[25] = second compound 0.316 µM, first compound 0.0316 µM
[26] = second compound 0.316 µM, first compound 0.1 µM
[27] = second compound 0.316 µM, first compound 0.316 µM
[28] = second compound 0.316 µM, first compound 1 µM
[29] = second compound 0.316 µM, first compound 3.16 µM
[30] = second compound 0.316 µM, first compound 10 µM
[31] = second compound 1 µM, first compound 0.0316 µM
[32] = second compound 1 µM, first compound 0.1 µM
[33] = second compound 1 µM, first compound 0.316 µM
[34] = second compound 1 µM, first compound 1 µM
[35] = second compound 1 µM, first compound 3.16 µM
[36] = second compound 1 µM, first compound 10 µM

Structure (SMILES): C#Cc1c(F)ccc2cc(O)cc(-c3ncc4c(N5CC6CCC(C5)N6)nc(OCC56CCCN5CC(F)C6)nc4c3F)c12 (centres undefined) + CC(Nc1ccc2c(c1)OCCn1cc(N3C(=O)OCC3C(F)F)nc1-2)C(N)=O
- IC50 (second compound 0.00316 µM): 9.28 µM
- IC50 (second compound 0.01 µM): 8.37 µM
- IC50 (second compound 0.0316 µM): 4.68 µM
- IC50 (second compound 0.1 µM): 3.36 µM
- IC50 (second compound 0.316 µM): 1.54 µM
- IC50 (second compound 1 µM): 1.06 µM
- viability, T/C [1]: 103%
- viability, T/C [2]: 99%
- viability, T/C [3]: 96.1%
- viability, T/C [4]: 86.7%
- viability, T/C [5]: 69.8%
- viability, T/C [6]: 48.6%
- viability, T/C [7]: 94%
- viability, T/C [8]: 94.8%
- viability, T/C [9]: 87.6%
- viability, T/C [10]: 78.3%
- viability, T/C [11]: 63.9%
- viability, T/C [12]: 47.4%
- viability, T/C [13]: 74.2%
- viability, T/C [14]: 83.1%
- viability, T/C [15]: 74.4%
- viability, T/C [16]: 61.4%
- viability, T/C [17]: 56.7%
- viability, T/C [18]: 41.8%
- viability, T/C [19]: 70.3%
- viability, T/C [20]: 65.3%
- viability, T/C [21]: 64.5%
- viability, T/C [22]: 56.8%
- viability, T/C [23]: 53.7%
- viability, T/C [24]: 35.5%
- viability, T/C [25]: 67.6%
- viability, T/C [26]: 67.1%
- viability, T/C [27]: 58.8%
- viability, T/C [28]: 54.2%
- viability, T/C [29]: 44%
- viability, T/C [30]: 33.4%
- viability, T/C [31]: 60.7%
- viability, T/C [32]: 54.4%
- viability, T/C [33]: 55.4%
- viability, T/C [34]: 51.4%
- viability, T/C [35]: 41.5%
- viability, T/C [36]: 28%

Structure (SMILES): CC1(C)CCC(Nc2ncc(C(F)(F)F)c(-c3c[nH]c4c(P(C)(C)=O)c(C#N)ccc34)n2)CN1 (centres undefined) + CC(Nc1ccc2c(c1)OCCn1cc(N3C(=O)OCC3C(F)F)nc1-2)C(N)=O
- IC50 (second compound 0.00316 µM): < 0.0316 µM
- IC50 (second compound 0.01 µM): < 0.0316 µM
- IC50 (second compound 0.0316 µM): < 0.0316 µM
- IC50 (second compound 0.1 µM): < 0.0316 µM
- IC50 (second compound 0.316 µM): < 0.0316 µM
- IC50 (second compound 1 µM): < 0.0316 µM
- viability, T/C [1]: 47.2%
- viability, T/C [2]: 47.7%
- viability, T/C [3]: 42.2%
- viability, T/C [4]: 48.2%
- viability, T/C [5]: 47.4%
- viability, T/C [6]: 4.16%
- viability, T/C [7]: 48.4%
- viability, T/C [8]: 44.9%
- viability, T/C [9]: 44.2%
- viability, T/C [10]: 46.7%
- viability, T/C [11]: 47.5%
- viability, T/C [12]: 3.26%
- viability, T/C [13]: 45.1%
- viability, T/C [14]: 42.1%
- viability, T/C [15]: 43.6%
- viability, T/C [16]: 45.2%
- viability, T/C [17]: 42.4%
- viability, T/C [18]: 3.28%
- viability, T/C [19]: 41.9%
- viability, T/C [20]: 39.6%
- viability, T/C [21]: 41.1%
- viability, T/C [22]: 37.8%
- viability, T/C [23]: 36.2%
- viability, T/C [24]: 2.99%
- viability, T/C [25]: 39.8%
- viability, T/C [26]: 38.9%
- viability, T/C [27]: 36.1%
- viability, T/C [28]: 37.4%
- viability, T/C [29]: 34.8%
- viability, T/C [30]: 2.9%
- viability, T/C [31]: 37.8%
- viability, T/C [32]: 36%
- viability, T/C [33]: 33.4%
- viability, T/C [34]: 34.6%
- viability, T/C [35]: 34.9%
- viability, T/C [36]: 2.74%
